Reference: patent US20070225348A1, “Amino acid composition for improving glucose tolerance” (priority 2005, published 2007)

Test system: Zucker Diabetic Fatty rats (model with type 2 diabetes mellitus)
Test: Experiment 2: blood glucose response after oral gavage of glucose with amino acid test mixture or isoleucine solution
Format: in vivo, rat
Conditions: oral gavage 8 ml/kg with glucose, measured at 30, 60, 90 and 120 minutes, control 22.5% glucose solution
Protocol: The control formula (22.5% glucose solution) and the amino acid test formula described in Experiment 1 are prepared and subsequently used in this second experiment, along with an isoleucine mixture as described below. In this second experiment, a high dose isoleucine mixture is prepared by adding L-isoleucine ([…]) to 50 ml beaker followed by 10 ml of 1N HCL. The beaker contents are mixed until dissolved, and thereafter to it is added with agitation 25 ml of a 45% glucose solution. The pH of the resulting mixture is adjusted to 7.0 (+/−1.0) with a 50% sodium hydroxide solution (buffer may be added to stabilize pH). The pH adjusted mixture is transferred to a 50 ml volumetric and brought to volume with distilled water. The mixture is transferred to a beaker with stir bar and continually stirred while filling syringes. Zucker Diabetic Fatty rats, a model of type 2 diabetes, are received at the animal facility for at least one week before testing. Each is weighed the day before the experiment and then assigned to one of […] matched for body weight. After an overnight fast, each rat is weighed and then dosed at 8 ml/kg body weight (oral gavage) with the glucose control, the amino acid test mixture, or the isoleucine solution. Blood glucose concentrations are then measured from the tip of the tail of each animal at 30, 60, 90 and 120 minutes following the gavage.

CC[C@H](C)[C@H](N)C(=O)O [high dose isoleucine, L-isoleucine]
blood glucose concentrations relative to the control: does not significantly affect blood glucose concentrations
